This assay has as its system SW620 cells, phospho-p38 western blot, 24 h. Description: altered phosphorylated p38 MAPK amounts – SW620 cells, chemiluminescent western blot, powder samples, counter-screen for KLF5 inhibitor project, late-stage follow-up (AID 588663). Conditions: at 10 µM; stronger effect = higher value. (In general: A western blot detects proteins with antibodies after separation by electrophoresis.)

Calls of active or inactive are those of the source.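 Rule for the calls: active = phosphorylated p38 level shifted at least 30% either way versus solvent-only control; inactive = shift under 30% either way.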

As a reminder, the inhibition is the relative decrease from the control value, in per cent. With `CN(C(=O)CNC(=O)/C=C/c1cccc(Cl)c1)C1CCS(=O)(=O)CC1`, the inhibition is 6.58% (inactive).

In the case of `CN(C(=O)COC(=O)/C=C/c1cccc([N+](=O)[O-])c1)C1CCS(=O)(=O)C1` (stereo not drawn), the inhibition is 9.32% (inactive).

Regarding `CN(C(=O)CNC(=O)/C=C/c1cccc(Cl)c1)C1CCS(=O)(=O)C1` (stereo not drawn), the inhibition was 15.9% (inactive).

These data come from PubChem BioAssay AID588663 (The Scripps Research Institute Molecular Screening Center, 2011).
